Measured values from ChEMBL document CHEMBL5465560, “Selectivity Literature for EUbOPEN Chemogenomic Library” (2024).
Values belong to the molecule of their own block, whether it stands above or below them.

How the values were obtained:
[1] = biological target: T1, Serine/threonine-protein kinase RIO1 (Homo sapiens) (UniProt Q9BRS2); conditions: at 10 µM
T1 sequence (whole entry): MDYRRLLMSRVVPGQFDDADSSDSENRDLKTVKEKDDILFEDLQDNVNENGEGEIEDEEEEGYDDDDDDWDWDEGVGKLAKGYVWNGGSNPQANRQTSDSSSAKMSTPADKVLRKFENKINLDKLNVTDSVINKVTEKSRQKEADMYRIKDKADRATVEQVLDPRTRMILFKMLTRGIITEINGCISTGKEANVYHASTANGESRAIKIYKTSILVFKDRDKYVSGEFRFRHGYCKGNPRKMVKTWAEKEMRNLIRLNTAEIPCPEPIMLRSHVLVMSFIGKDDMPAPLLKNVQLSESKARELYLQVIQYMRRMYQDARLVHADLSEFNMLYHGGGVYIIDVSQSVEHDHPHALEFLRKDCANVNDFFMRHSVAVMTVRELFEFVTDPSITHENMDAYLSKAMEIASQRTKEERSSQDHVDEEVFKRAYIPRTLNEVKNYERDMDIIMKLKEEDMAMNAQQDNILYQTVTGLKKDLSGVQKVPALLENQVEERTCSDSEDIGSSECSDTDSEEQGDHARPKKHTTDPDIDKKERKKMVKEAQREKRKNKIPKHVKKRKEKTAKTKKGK

[2] = biological target: T2, N-lysine methyltransferase KMT5A (Homo sapiens) (UniProt Q9NQR1); assay: Selectivity interaction (Methyltransferase screen (radiometric assays, panel of 8 PRMTs, 21 protein lysine methyltransferases, 3 DNA methyltransferases, and one RNA methyltransferase)) EUB0000271b SETD8
T2 sequence (whole entry): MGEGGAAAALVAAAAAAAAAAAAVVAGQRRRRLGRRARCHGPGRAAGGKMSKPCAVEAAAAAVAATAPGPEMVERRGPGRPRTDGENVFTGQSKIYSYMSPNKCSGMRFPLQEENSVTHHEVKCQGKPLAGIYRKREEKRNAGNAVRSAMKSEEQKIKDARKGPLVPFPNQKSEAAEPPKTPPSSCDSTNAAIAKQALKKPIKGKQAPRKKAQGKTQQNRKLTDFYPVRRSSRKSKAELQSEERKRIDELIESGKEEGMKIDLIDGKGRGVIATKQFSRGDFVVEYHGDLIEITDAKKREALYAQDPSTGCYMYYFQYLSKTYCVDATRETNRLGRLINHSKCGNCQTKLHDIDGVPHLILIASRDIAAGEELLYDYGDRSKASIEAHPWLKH

[3] = biological target: Cyclin-dependent kinase 3 (Homo sapiens) (UniProt Q00526); assay: Selectivity interaction (KinomeScan (DiscoverX)) EUB0000595a CDK3; conditions: at 10 µM
[4] = biological target: Testis-specific serine/threonine-protein kinase 4 (Homo sapiens) (UniProt Q6SA08); assay: Selectivity interaction (Kinase panel (Eurofins)) EUB0001564a TSSK4; conditions: at 1 µM
[5] = biological target: T3, Serine/threonine-protein kinase DCLK2 (Homo sapiens) (UniProt Q8N568); assay: Selectivity interaction (Upstate Kinase Profiler service (Millipore)) EUB0000056c DCLK2; conditions: at 1 µM
T3 sequence (whole entry): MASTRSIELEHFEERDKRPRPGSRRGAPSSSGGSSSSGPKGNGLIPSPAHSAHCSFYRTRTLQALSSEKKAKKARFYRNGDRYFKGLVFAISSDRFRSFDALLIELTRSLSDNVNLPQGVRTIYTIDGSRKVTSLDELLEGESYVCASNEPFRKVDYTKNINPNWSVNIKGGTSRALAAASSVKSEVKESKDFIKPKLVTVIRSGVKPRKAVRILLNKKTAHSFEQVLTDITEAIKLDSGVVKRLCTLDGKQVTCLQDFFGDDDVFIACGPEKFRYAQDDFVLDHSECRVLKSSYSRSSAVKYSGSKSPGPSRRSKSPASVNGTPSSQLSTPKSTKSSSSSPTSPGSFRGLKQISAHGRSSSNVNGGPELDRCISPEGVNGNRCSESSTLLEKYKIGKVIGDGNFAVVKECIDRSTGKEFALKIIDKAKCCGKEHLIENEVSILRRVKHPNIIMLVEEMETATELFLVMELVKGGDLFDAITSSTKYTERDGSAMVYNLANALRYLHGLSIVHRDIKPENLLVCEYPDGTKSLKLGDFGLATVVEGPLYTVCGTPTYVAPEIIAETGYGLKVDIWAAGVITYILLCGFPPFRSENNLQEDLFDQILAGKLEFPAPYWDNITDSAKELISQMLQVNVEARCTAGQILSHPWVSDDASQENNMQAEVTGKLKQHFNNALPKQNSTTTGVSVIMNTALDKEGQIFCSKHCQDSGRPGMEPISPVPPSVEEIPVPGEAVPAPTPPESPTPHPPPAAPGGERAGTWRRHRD

[6] = biological target: T4, Serine/threonine-protein kinase TBK1 (Homo sapiens) (UniProt Q9UHD2); assay: Selectivity interaction (KinomeScan (DiscoverX)) EUB0000607a TBK1; conditions: at 10 µM
T4 sequence (whole entry): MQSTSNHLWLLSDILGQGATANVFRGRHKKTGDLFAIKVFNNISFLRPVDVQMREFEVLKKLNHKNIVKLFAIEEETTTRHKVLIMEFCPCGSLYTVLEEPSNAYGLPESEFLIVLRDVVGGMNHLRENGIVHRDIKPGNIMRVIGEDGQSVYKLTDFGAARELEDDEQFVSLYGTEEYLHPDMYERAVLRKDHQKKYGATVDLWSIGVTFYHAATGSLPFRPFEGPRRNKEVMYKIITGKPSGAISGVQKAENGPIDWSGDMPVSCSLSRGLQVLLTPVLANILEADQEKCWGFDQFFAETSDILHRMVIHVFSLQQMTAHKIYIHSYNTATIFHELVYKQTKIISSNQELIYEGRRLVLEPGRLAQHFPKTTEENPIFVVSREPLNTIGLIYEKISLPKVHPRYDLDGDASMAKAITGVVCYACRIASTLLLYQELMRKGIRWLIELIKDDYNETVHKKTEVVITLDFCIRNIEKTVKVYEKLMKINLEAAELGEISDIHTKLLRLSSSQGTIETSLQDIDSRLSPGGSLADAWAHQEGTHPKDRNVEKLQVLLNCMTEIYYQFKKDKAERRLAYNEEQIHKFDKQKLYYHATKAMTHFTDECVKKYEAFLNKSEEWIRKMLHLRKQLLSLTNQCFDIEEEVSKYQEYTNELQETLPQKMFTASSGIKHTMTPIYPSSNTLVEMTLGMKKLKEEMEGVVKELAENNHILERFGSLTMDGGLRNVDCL

Chain of Cyclin-dependent kinase 3 (Homo sapiens) (Q00526 whole entry, looked up): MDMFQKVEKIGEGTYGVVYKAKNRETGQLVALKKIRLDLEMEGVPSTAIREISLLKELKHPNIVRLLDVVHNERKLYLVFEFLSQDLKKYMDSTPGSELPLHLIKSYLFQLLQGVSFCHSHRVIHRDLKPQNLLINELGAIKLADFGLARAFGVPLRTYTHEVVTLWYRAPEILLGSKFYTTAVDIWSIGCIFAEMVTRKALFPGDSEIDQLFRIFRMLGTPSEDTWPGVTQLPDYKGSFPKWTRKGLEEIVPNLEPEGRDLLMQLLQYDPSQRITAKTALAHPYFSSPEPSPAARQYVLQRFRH
Chain of Testis-specific serine/threonine-protein kinase 4 (Homo sapiens) (Q6SA08 whole entry): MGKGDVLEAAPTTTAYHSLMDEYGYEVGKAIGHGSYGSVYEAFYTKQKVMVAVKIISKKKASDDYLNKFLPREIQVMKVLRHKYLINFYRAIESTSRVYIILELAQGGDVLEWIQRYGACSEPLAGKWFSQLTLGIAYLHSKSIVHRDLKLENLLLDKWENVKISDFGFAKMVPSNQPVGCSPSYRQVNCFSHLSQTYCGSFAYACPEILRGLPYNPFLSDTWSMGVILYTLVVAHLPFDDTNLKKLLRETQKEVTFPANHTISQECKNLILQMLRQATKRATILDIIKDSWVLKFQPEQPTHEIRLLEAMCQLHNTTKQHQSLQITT

- % of control [1]: 100%
Structure (SMILES): CCN(CC)CCCCNc1ncc2cc(-c3cc(OC)cc(OC)c3)c(NC(=O)NC(C)(C)C)nc2n1

Structure (SMILES): Cc1cc(C)cc([C@@H]2c3cc(C)ccc3NC(=O)CN2C(=O)c2ccc(Br)s2)c1
- % of activity ([2]; at 1 µM): 101%
- % of activity ([2]; at 10 µM): 92%

Structure (SMILES): COCC(=O)NC/C=C/c1ccc2ncnc(Nc3ccc(Oc4ccc(C)nc4)c(C)c3)c2c1 [CP-724714]
- % of control [3]: 100%

- % of inhibition [4]: 24%
Structure (SMILES): CC[C@@H](Nc1c(C#N)c(-c2ccc(-c3cccc(C)c3F)cc2)nc2cnccc12)C(=O)O [BAY-091]

- % of inhibition [5]: -1%
Structure (SMILES): Cc1ccc(-c2ccc3c(ccc4sc5c(c43)NC[C@@H](C)NC5=O)n2)cn1

Structure (SMILES): CNC(=O)Nc1ccc(-c2nc(N3CC4CCC(C3)O4)c3cnn(C4CCC5(CC4)OCCO5)c3n2)cc1
- % of control [6]: 82%
